Structures can show the parent of a compound that is named as a salt. No end group written: not given here.
Legend:
human orexin-1 receptor = biological target: T1, human orexin-1 receptor (Homo sapiens, UniProt O43613); assay: Orexin-1 receptor antagonist activity, FLIPR intracellular calcium assay in HEK293 cells against 3.0 nM human orexin-A; assay type: cell-based; details: HEK293 cells expressing human orexin-1 receptor; antagonism of 3.0 nM human orexin-A; Kb=IC50/(1+([3/EC50])
T1 construct: expressed in transfected cells; host or cells: HEK293
T1 sequence (O43613 1-425): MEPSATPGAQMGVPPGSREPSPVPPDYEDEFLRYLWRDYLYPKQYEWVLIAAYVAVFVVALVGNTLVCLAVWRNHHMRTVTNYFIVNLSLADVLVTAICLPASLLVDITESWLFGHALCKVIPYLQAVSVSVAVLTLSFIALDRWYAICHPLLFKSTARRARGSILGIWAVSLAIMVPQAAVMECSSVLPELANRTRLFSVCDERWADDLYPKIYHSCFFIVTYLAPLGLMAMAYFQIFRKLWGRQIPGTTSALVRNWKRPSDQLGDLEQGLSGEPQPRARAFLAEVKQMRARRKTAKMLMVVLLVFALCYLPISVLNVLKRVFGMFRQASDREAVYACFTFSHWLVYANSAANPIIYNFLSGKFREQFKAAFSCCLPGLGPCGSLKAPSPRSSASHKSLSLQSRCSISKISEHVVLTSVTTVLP
Protocol: The seeded plates were incubated overnight at 37° C. in 5% CO2.

[1] = Rat sleep/EEG studies, central administration at onset of normal sleep period; assay type: in vivo; details: at the expense of paradoxical sleep and slow wave sleep 2
Text: Therefore, antagonists of orexin receptors may be useful in the treatment of sleep disorders including insomnia.

[2] = central administration, freely-feeding rats, 4 hour time period; cited from earlier work

Row | Compound | Kb (human orexin-1 receptor) | effect on arousal [1] | increase in food intake over control rats receiving vehicle [2]
1 | CSc1ccc(NC(=O)Nc2ccnc3cccnc23)cc1 [Example 2, 1-(4-Methylthiophenyl)-3-[1,5]naphthyridin-4-yl urea hydrochloride] | < 100 nM | – | –
2 | orexin-A: ligand for the orexin-1 receptor; 33-residue peptide, sequence given in the 1st table (QPLPDCCRQKTCSCRLYELLHGAGNHAAGILTL-NH2; not fully specified (residue 1, bridges); ends and bridges not checked; UniProt O43612 34-66, looked up) | – | does-related increase in arousal | approximately four-fold

From patent US6372757B1, “Phenylurea and phenylthio urea derivatives” (SmithKline Beecham p.l.c., priority 1998, dated 2002)
